Experimental data: patent US12509454B2, “Thiadiazolyl derivatives” (IDEAYA Biosciences, Inc., priority 2019, dated 2025)
pIC50: −log10 of the molar value.

Target: Pol theta (1-899) (Homo sapiens (Human), UniProt O75417)
Experiment: Pol theta ATPase activity, NADH oxidation-coupled enzymatic assay
Format: biochemical
Details: Pol theta (1-899) 10 nM, ATP, dT50 ssDNA, absorbance 340 nm, 10-point dilution series; read-out: ATPase NADH coupling:Standard Screening:hPolQ IC50
Outline: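 Pol theta (1-899), 10 nM, preincubated 15 min at RT with 10-point compound series in Tris pH 7.80/KCl/MgCl2 buffer, then given 100 μM ATP plus 300 nM dT50 ssDNA with PK/LDH-coupled NADH oxidation. A340 followed for 30 min; rate slopes fitted with a four-parameter model for IC50.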

Chain of Pol theta (1-899) (O75417 1-899): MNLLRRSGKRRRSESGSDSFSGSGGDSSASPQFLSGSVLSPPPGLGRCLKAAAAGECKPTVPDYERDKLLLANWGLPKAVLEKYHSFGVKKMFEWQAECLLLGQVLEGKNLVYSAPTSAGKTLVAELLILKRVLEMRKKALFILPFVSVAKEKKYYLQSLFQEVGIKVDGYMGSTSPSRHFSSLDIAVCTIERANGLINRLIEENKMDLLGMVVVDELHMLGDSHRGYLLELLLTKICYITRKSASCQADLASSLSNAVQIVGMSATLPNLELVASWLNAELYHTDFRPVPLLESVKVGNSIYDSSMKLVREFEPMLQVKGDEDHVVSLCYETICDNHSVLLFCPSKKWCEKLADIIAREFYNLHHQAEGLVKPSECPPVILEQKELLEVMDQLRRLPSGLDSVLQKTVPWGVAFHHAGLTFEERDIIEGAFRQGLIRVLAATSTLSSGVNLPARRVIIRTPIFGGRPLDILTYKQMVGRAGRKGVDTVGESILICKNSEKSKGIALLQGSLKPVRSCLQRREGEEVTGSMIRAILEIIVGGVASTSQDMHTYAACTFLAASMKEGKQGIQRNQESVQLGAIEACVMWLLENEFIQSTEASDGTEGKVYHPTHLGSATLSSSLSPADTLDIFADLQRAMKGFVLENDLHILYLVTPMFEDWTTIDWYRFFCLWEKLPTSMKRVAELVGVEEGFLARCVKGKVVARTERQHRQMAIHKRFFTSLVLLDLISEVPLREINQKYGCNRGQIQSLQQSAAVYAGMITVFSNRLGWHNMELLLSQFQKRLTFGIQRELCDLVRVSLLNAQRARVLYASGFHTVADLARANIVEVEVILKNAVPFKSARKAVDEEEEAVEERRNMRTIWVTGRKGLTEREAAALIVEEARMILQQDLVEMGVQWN

| SMILES | pIC50 |
| --- | --- |
| O=C(Nc1nnc(OCc2ccc(Cl)cc2)s1)c1cncn1-c1ccccc1Cl [Example 42, N-(5-((4-chlorobenzyl)oxy)-1,3,4-thiadiazol-2-yl)-1-(2-chlorophenyl)-1H-imidazole-5-carboxamide] | ≥ 6.70 |
| COc1ccccc1-c1cnccc1C(=O)Nc1nnc(OCc2ccc(Cl)c(Cl)c2)s1 [Example 158, N-[5-[(3,4-dichlorophenyl)methoxy]-1,3,4-thiadiazol-2-yl]-3-(2-methoxyphenyl)pyridine-4-carboxamide] | ≥ 6.70 |
| COc1cccc(-n2cncc2C(=O)Nc2nnc(OCc3ccc(Cl)cc3)s2)c1 [Example 49, N-(5-((4-chlorobenzyl)oxy)-1,3,4-thiadiazol-2-yl)-1-(3-methoxyphenyl)-1H-imidazole-5-carboxamide] | 6.00 to 6.30 |
| COc1ccccc1-c1cc(CO)ncc1C(=O)Nc1nnc(OCc2ccc(Cl)cn2)s1 [Example 170, N-[5-[(5-chloropyridin-2-yl)methoxy]-1,3,4-thiadiazol-2-yl]-6-(hydroxymethyl)-4-(2-methoxyphenyl)pyridine-3-carboxamide] | ≥ 6.70 |
| Cc1cc(-c2ccccc2OC(F)F)c(C(=O)Nc2nnc(OCc3ccc(C4(C#N)CC4)cn3)s2)cn1 [Example 218, N-(5-[[5-(1-cyanocyclopropyl)pyridin-2-yl]methoxy]-1,3,4-thiadiazol-2-yl)-4-[2-(difluoromethoxy)phenyl]-6-methylpyridine-3-carboxamide] | ≥ 6.70 |
| Cc1cc(-c2cccc3c2OCCN3)c(C(=O)Nc2nnc(OCc3ccc(Cl)cn3)s2)cn1 [Example 198, N-(5-((5-chloropyridin-2-yl)methoxy)-1,3,4-thiadiazol-2-yl)-4-(3,4-dihydro-2H-benzo[b][1,4]oxazin-8-yl)-6-methylnicotinamide] | ≥ 6.70 |
| COc1cc(C(=O)Nc2nnc(OCc3ccc(Cl)cc3)s2)c(-c2ccccc2OC)cn1 [Example 160, N-(5-((4-chlorobenzyl)oxy)-1,3,4-thiadiazol-2-yl)-2-methoxy-5-(2-methoxyphenyl)isonicotinamide] | ≥ 6.70 |
| O=C1COc2c(cccc2-c2cnccc2C(=O)Nc2nnc(OCc3ccc(Cl)cc3)s2)N1 [Example 120, N-(5-((4-chlorobenzyl)oxy)-1,3,4-thiadiazol-2-yl)-3-(3-oxo-3,4-dihydro-2H-benzo[b][1,4]oxazin-8-yl)isonicotinamide] | ≥ 6.70 |
| C[C@@H]1COC[C@@H](C)N1c1cnccc1C(=O)Nc1nnc(OCc2ccc(Cl)cn2)s1 [Example 188, N-(5-((5-chloropyridin-2-yl)methoxy)-1,3,4-thiadiazol-2-yl)-3-((3R,5R)-3,5-dimethylmorpholino)isonicotinamide] | ≥ 6.70 |
| Cc1nn(C)cc1-c1cnccc1C(=O)Nc1nnc(OCc2ccc(Cl)cc2)s1 [Example 169, N-[5-[(4-chlorophenyl)methoxy]-1,3,4-thiadiazol-2-yl]-3-(1,3-dimethylpyrazol-4-yl)pyridine-4-carboxamide] | ≥ 6.70 |
| O=C(Nc1nnc(OCc2ccc(Cl)cc2)s1)c1cncn1-c1ccncc1 [Example 18, N-(5-((4-chlorobenzyl)oxy)-1,3,4-thiadiazol-2-yl)-1-(pyridin-4-yl)-1H-imidazole-5-carboxamide] | 6.00 to 6.30 |
| COc1ncccc1-c1ccncc1C(=O)Nc1nnc(OCc2ccc(Cl)cc2)s1 [Example 129, N-(5-((4-chlorobenzyl)oxy)-1,3,4-thiadiazol-2-yl)-2-methoxy-[3,4′-bipyridine]-3′-carboxamide] | 6.30 to 6.70 |
| O=C(Nc1nnc(OCc2ccc(Cl)cc2)s1)c1cccnc1N1CCOc2ccccc21 [Example 66, N-(5-((4-chlorobenzyl)oxy)-1,3,4-thiadiazol-2-yl)-2-(2,3-dihydro-4H-benzo[b][1,4]oxazin-4-yl)nicotinamide] | 5.00 to 6.00 |
| CCc1ccccc1-c1cnccc1C(=O)Nc1nnc(OCc2ccc(Cl)cc2)s1 [Example 135, N-[5-[(4-chlorophenyl)methoxy]-1,3,4-thiadiazol-2-yl]-3-(2-ethylphenyl)pyridine-4-carboxamide] | ≥ 6.70 |
| COc1ccccc1-c1cn2ccnc2cc1C(=O)Nc1nnc(OCc2ccc(Cl)cc2)s1 [Example 161, N-(5-((4-chlorobenzyl)oxy)-1,3,4-thiadiazol-2-yl)-6-(2-methoxyphenyl)imidazo[1,2-a]pyridine-7-carboxamide] | ≥ 6.70 |
| COc1cnccc1-c1cnccc1C(=O)Nc1nnc(OCc2ccc(Cl)cc2)s1 [Example 131, N-(5-((4-chlorobenzyl)oxy)-1,3,4-thiadiazol-2-yl)-3′-methoxy-[3,4′-bipyridine]-4-carboxamide] | ≥ 6.70 |
| O=C(Nc1nnc(OCc2ccc(Cl)cn2)s1)c1cccnc1N1CCC(F)(F)CC1 [Example 39, N-(5-((5-chloropyridin-2-yl)methoxy)-1,3,4-thiadiazol-2-yl)-2-(4,4-difluoropiperidin-1-yl)nicotinamide] | 5.00 to 6.00 |
| CN1CCN(c2ncccc2C(=O)Nc2nnc(OCc3ccc(Cl)cc3)s2)CC1=O [Example 45, N-[5-[(4-chlorophenyl)methoxy]-1,3,4-thiadiazol-2-yl]-2-(4-methyl-3-oxopiperazin-1-yl)pyridine-3-carboxamide] | 6.00 to 6.30 |
| COc1ccccc1-c1cc(CCC(N)=O)ncc1C(=O)Nc1nnc(OCc2ccc(Cl)cc2)s1 [Example 163, 6-(3-amino-3-oxopropyl)-N-(5-((4-chlorobenzyl)oxy)-1,3,4-thiadiazol-2-yl)-4-(2-methoxyphenyl)nicotinamide] | ≥ 6.70 |
